# Patent US20160200762A1, “Bioactive polypeptide DELQ and preparation method as well as application thereof” (SHANGHAI JIAOTONG UNIVERSITY, priority 2012, published 2016)
# Where a SMILES comes first, the peptide text is derived from it.
# What was measured:
# [1] = simulated in vitro gastrointestinal digestion (pepsin, then pancreatin), UPLC-Q-TOF-MS analysis; format: in vitro ADME; conditions: 500 μg/mL; pepsin pH 2.0 37° C. 90 min, then pancreatin pH 7.5 37° C. 150 min
# Procedure: The experiment is divided into two steps. Firstly, preparing a 500 μg/mL DELQ solution, adding pepsin with a ratio of 20 mg the pepsin for every gram of the DELQ, adjusting a pH value of the reaction solution to 2.0, reacting with a temperature kept in a 37° C. thermostatic waterbath for 90 min; then adjusting a pH value to 7.5, and adding pancreatin with a ratio of 40 mg the pancreatin for every gram of the DELQ, and reacting with a temperature kept in a 37° C. thermostatic waterbath for 150 min; inactivating disgestive enzymes with a 95° C. waterbath for 5 min; and freeze-drying the reaction solution for obtaining dry powder thereof, and storing at −20° C. for further use.
# Picking 0.2 mg powder sample after stimulated in vitro gastrointestinal digestion, adding 50 μL water and 450 μL pure ethanol, thorough shocking before putting into a −20° C. freezer for 20 min, centrifuging at 15000 rpm for 30 min, collecting 400 μL supernatant for UPLC-Q-TOF-MS analysis. […]
# According to the above experiment conditions, the bioactive polypeptides DELQ before and after treatment with digestive enzymes are analyzed by UPLC-Q-TOF-MS, a total ion stream obtained is shown in FIG. 11. […]
# [2] = in vitro antioxidant activity detection with the [DPPH.] method (radical removing rate); format: biochemical
# Procedure: (1) Preparing 1 mmol/L [DPPH.] Methanol Solution:
# Weighting […] [DPPH.] with the analytical balance and dissolving in 1 ml methanol solution for obtaining 1 mmol/L [DPPF.] methanol solution, storing with tinfoil for avoiding light, wherein the [DPPF.] methanol solution is prepared before use.
# (2) Standard Curve Detection of [DPPH.] Methanol Solution:
# Adding 100 μL [DPPH.] methanol standard curve sample into the 96-hole cell culturing plate according to a Table 2, waiting for 90 min at a room temperature, detecting absorbance values at 517 nm with the microplate reader.
# Accordingly, curves are fitted and a regression equation is calculated with Excel, and results thereof are shown in FIG. 8 (the regression equation: y=−0.192x+0.2271, R^2=0.9991). […] From the results, absorbance values and [DPPF.] contents have an inverse relationship, i.e. the less the [DPPH.] content is, the […] the absorbance value will be, which means a stronger radical removing ability.
# (3) Antioxidant Activity Detection of the Bioactive Polypeptide DELQ with [DPPH.] Method […]
# 2) blank group: adding 80 μL 1 mmol/L [DPPF.] methanol solution and 20 μL deionized water into the same 96-hole cell culturing plate for forming a blank group.
# After adding the test sample, waiting at the room temperature for 90 min, detecting the absorbance values at 517 nm with the microplate reader, and calculating a radical removing ratio according to a following formula, wherein results thereof are shown in Table 3.
# [3] = total antioxidant capacity detection with the FRAP (Ferric Reducing Ability Power) method; format: biochemical; conditions: sample concentration 4.00 mg/mL
# Procedure: (1) Preparing FRAP Working Fluid:
# According to the FRAP detection reagent kit, thorough mixing 7.5 mL TPTZ diluent, 750 μL TPTZ solution, and 750 μL detection buffer, incubating in a 37° C. water bath, and using in 2 h.
# (2) Drawing a FeSO4 Standard Curve:
# Adding 180 μL FRAP working fluid into the 96-hole cell culturing plate, then adding 5 μL FeSO4 standard curve solution according to Table 4, gently mixing, incubating at 37° C. for 3-5 min, and detecting absorbance values at 593 nm with the microplate reader.
# FeSO4 concentration and the absorbance value have a good proportional relationship, i.e. the higher the FeSO4 concentration is, the higher absorbance value will be. According to the present invention, FeSO4 standard curve results are shown in FIG. 10, the standard curve has a good linear relationship, wherein a correlation coefficient thereof is 0.998. Precision and accuracy of the FeSO4 curve satisfy testing requirements, and are applicable for subsequent calculation.
# (3) Bioactive Polypeptide DELQ Antioxidant Capacity Detection with FRAP Method
# Adding 180 μL FRAP working fluid into the 96-hole cell culturing plate, adding 5 μL ddH2O into a blank control hole, adding 5 μL testing sample into a sample hole, adding 5 μL phytic acid into a positive control, gently mixing, incubating at 37° C. for 3-5 min, and detecting absorbance values at 593 nm with the microplate reader. […]
structure (smiles),measurement,setting,value
"CC(C)C[C@H](NC(=O)[C@H](CCC(=O)O)NC(=O)[C@@H](N)CC(=O)O)C(=O)N[C@@H](CCC(N)=O)C(=O)O [DELQ, Asp-Glu-Leu-Gln] (H-DELQ-OH; N-terminus and C-terminus assumed)",stability under simulated in vitro gastrointestinal digestion,[1],stable
Cc1c(C)c2c(c(C)c1O)CCC(C)(C(=O)O)O2 (stereo not drawn) [Trolox],[DPPH.] radical removing rate,"[2]; positive control 1, 2.5 mg/mL Trolox",99.96%
same,[DPPH.] radical removing rate,"[2]; positive control 2, 0.025 g/mL Trolox",71.08 ± 0.03%
O=P(O)(O)O[C@H]1[C@H](OP(=O)(O)O)[C@@H](OP(=O)(O)O)[C@H](OP(=O)(O)O)[C@@H](OP(=O)(O)O)[C@H]1OP(=O)(O)O [phytic acid],FRAP,[3],0.0089 mmol/g
same,corresponding FeSO4 concentration,[3]; 593 nm,0.0356 ± 0.0055 mmol/L
same,[DPPH.] radical removing rate,"[2]; negative control, concentration not given",58.49 ± 0.08%
